From patent US6723702B2, “Use of relaxin treat diseases related to vasoconstriction” (RAS Medical, Inc., priority 2000, dated 2004) come the findings set out here.

For one test, the system named is conscious rats. Nature of the test: Acute infusion of ANG II during chronic infusion of purified porcine RLX. Particulars: for ERPF / ERVR / GFR / MAP: RLX 4 μg/h s.c. day 5. The format is in vivo, rat. Here is the method: At least 7 days after the implantation of vascular and bladder catheters, osmotic minipumps containing either porcine RLX (4 μg/hour) or vehicle (Ringer's solution) were implanted in intact, female rats (n=7 and 6 rats, respectively). Renal function and MAP were measured on day 5 of relaxin infusion (three 30-minute urine and midpoint blood collections). Next, an infusion of L-NAME (2 μg/minute, a substrate competitive inhibitor of NO synthase) was administered intravenously (i.v.) by infusion pump (Model 200, KD Scientific, Boston, Mass.). Four 1-hour urine collections with midpoint blood samples were collected for the assessment of GFR, ERPF, and ERVR during the L-NAME administration. Identical procedures were performed on additional animals chronically administered porcine RLX (n=5) or vehicle (n=5), except that ANG II (3 ng/minute) was infused rather than L-NAME. Finally, another four, age-matched control rats were administered Ringer's solution instead of either L-NAME or ANG II on day 5 of porcine RLX infusion.
To minimize the possibility that the convergence of renal function in the relaxin and vehicle infused rats elicited by L-NAME was merely a consequence of nonspecific renal vasoconstriction, the experimental paradigm was repeated using another vasoconstrictor, ANG II. Values are provided as mean±SEM. Relaxin, RLX; Angiotensin II, ANG II. ANG II was infused at 3 ng/min i.v., and RLX at 4 μg/h by osmotic minipump s.c. There were five rats each in the RLX and vehicle groups. *p<0.05 vs baseline, Hp<0.05 RLX vs vehicle.

For test [1], the system named is infarct and peri-infarct areas of the left ventricle. Nature of the test: Rat LCAL model: number of venules on H & E sections. The format is in vivo. The protocol:
(§1) Female Sprague Dawley rats, approximately 12-weeks of age were used. Rats were anesthetized by intraperitoneal (i.p.) injection of up to 1 ml/kg ketamine/medetomidine (6:4). Following exteriorization of the heart, the left coronary artery was ligated near its origin with a silk suture. In sham surgery control animals, the suture was placed superficially into the muscle adjacent to the coronary artery. Post-closure EKG's were monitored for S-T segment elevation in LCAL animals to confirm the outcome of ligation. Immediately following cardiac surgery, a primed mini-osmotic pump containing relaxin or vehicle (20 mM acetate, pH 5.0) was aseptically implanted into a subcutaneous (s.c.) pocket on the dorsal interscapular region. Vehicle or relaxin (0.1 mg/kg/day) was delivered as a continuous s.c. infusion for 7 or 21 days to either sham or LCAL animals. Animals were terminated on day 7 or 21, and the peri-infarct regions anterior to the scar in the left ventricle, or equivalent sites on sham surgery animals were harvested.
The number of venules, arterioles and capillaries in the infarct and peri-infarct areas of the left ventricle were quantified by counting individual vessels on H & E (hematoxylin and eosin) stained sections. Numbers of venules, arterioles and capillaries were determined by counting in the area of the infarct, and in the right and left junction areas between the infarcted free wall and viable myocardium. Quantitation of venules and arterioles were obtained as total number of vessels in the entire area in each of 3 H&E stained transverse sections of the heart, i.e. apical, basal and midway between apical and basal levels. Quantitation was performed by a histopathologist blinded to the treatment groups. Venules comprised the observed increases in numbers of collateral vessels post-infarction. All veins counted in high dry fields were summed to yield vessel number per level. Three levels (apical, basal, and middle) were summed for each animal to yield total number of veins. N=4-5 animals per treatment group. […]

In test [2] the test system is rat VEGF164, VEGF120 and bFGF mRNA in peri-infarct area of rat hearts. As to the kind of experiment: Rat myocardial infarct (LCAL) model: quantitative RT-PCR of VEGF and bFGF. The format is in vivo. Here is the method: as §1
The left coronary artery ligation (LCAL) model of myocardial ischemia in the rat (Selye et al. (1960) Angiology 11:398-407) caused profound, acute damage, involving up to 50% of the left ventricular free wall. Following systemic relaxin treatment, using rhRLX, tissue RNA was examined at 7 and 21 days post-infarction for persistent changes in VEGF and bFGF. Cells in the immediate margins surrounding the infarct were sampled to assess angiogenic cytokine expression, using quantitative RT-PCR analysis. Oligonucleotide primers and TaqMan probes, shown in Table 8, were purchased from BioSource International Inc.(Camarillo, Calif.), or PE Applied Biosystems for use with the ABI Prism^7 7700 Sequence Detection System (quantitative PCR) (PE Applied Biosystems).
Oligonucleotides were designed to rat or human bFGF, human VEGF165 amino acid or 121 amino acid isoforms, and their respective rat homologues (VEGF164 and VEGF120), and human HGF (for use with the PE Applied Biosystems “GeneAmp PCR System 9600”). Rat and human GAPDH primers and probes were purchased from BioSource International Inc. and PE Applied Biosystems, respectively. Tissue samples and monolayer cells were suspended in RNA STAT-60 (Tel-Test, Inc., Friendswood, Tex.) and processed following vendor instructions. Reverse transcription-polymerase chain reaction (RT-PCR) was performed using either rat or human total RNA as template. 150 ng of total RNA was used for the analysis of VEGF, bFGF and HGF mRNA expression; 10 ng of total RNA was used for GAPDH mRNA expression. Reverse transcription-polymerase chain reaction (RT-PCR) reagents were purchased from PE Biosystems (Foster City, Calif.).
RNA was extracted from peri-infarct regions of rat hearts following LCAL or an analogous area of sham hearts. […]

Consider “Porcine RLX: lyophilized, purified porcine relaxin (Sherwood and O'Byrne 1974), dissolved in Ringer's solution”, for which the ERPF with conscious rats (ANG II 3 ng/min i.v., 60 min) is 8926; in the test with conscious rats (ANG II 3 ng/min i.v., 120 min) it was 9646; in the test with conscious rats (ANG II 3 ng/min i.v., 180 min), 7738; with conscious rats (ANG II 3 ng/min i.v., 240 min) it was 7698; in the test with conscious rats (Baseline before ANG II), 10364. Moreover, the ERVR with conscious rats (ANG II 3 ng/min i.v., 60 min) was found to be 8.88; with conscious rats (ANG II 3 ng/min i.v., 120 min), 9.24; in the test on conscious rats (ANG II 3 ng/min i.v., 180 min), 11.52; with conscious rats (ANG II 3 ng/min i.v., 240 min) it was 11.84; in the test on conscious rats (Baseline before ANG II), 6.23. Moreover, the GFR in the test with conscious rats (ANG II 3 ng/min i.v., 60 min) turned out to be 2980; in the test on conscious rats (ANG II 3 ng/min i.v., 120 min), 2653; with conscious rats (ANG II 3 ng/min i.v., 180 min), 2578; with conscious rats (ANG II 3 ng/min i.v., 240 min), 2763; with conscious rats (Baseline before ANG II), 2929. For the same substance, the MAP in the test on conscious rats (ANG II 3 ng/min i.v., 60 min) was found to be 130; in the test with conscious rats (ANG II 3 ng/min i.v., 120 min), 142; with conscious rats (ANG II 3 ng/min i.v., 180 min), 143; with conscious rats (ANG II 3 ng/min i.v., 240 min), 146; with conscious rats (Baseline before ANG II) it was 111. The “percent increase in MAP and reduction in GFR elicited by ANG II” value with conscious rats (RLX treated vs vehicle infused rats) is “comparable”. Besides, the “percent increase in ERVR and reduction in ERPF elicited by ANG II” value with conscious rats (chronic relaxin vs vehicle) is listed as “markedly attenuated”.
Take “rhRLX: recombinant human relaxin, identical in amino acid sequence to the product of the human H2 gene; A chain of 24, B chain of 29 amino acids”: the “number of venules in the infarct region” value in test [1] (day 7, 0.1 mg/kg/day) is listed as 163±8. Further, the “number of venules (vessel number) in the infarct region” value in test [1] (day 21, 0.1 mg/kg/day) is recorded as 209±13. Moreover, the “number of vessels in analogous area of the left ventricle” value in test [1] (sham surgery) was “did not alter”. The “increase in peri-infarct bFGF expression (mRNA)” value in test [2] (0.1 mg/kg/day s.c., both 7 and 21 days, vs vehicle-treated infarcted hearts) is recorded as 2 fold. Also, the “relative expression of either VEGF isoform, peri-infarct regions” value in test [2] (0.1 mg/kg/day, day 7) is “no changes”. Also, in test [2] (0.1 mg/kg/day, day 21), the “relative levels of VEGF164 and VEGF120 transcripts” value is on record as “trend towards an increase”. Besides, in test [2] (sham surgery animals), the “VEGF or bFGF mRNA expression” value was “no effect”.
